Laboratory results taken from patent publication US4562183A, “Perfluoro-1-azabicyclo(5,3,0)decane compounds useful as blood substitutes” (I.S.C. Chemicals Limited, priority 1982, dated 1985).
Where two headings read alike, the source gives them in different places.

Columns and labels:
[1] = Stability of emulsion with yolk phospholipids; type: physicochemical; details: heating at 100° C. for 30 minutes and storage at 4° C. and 25° C. for 2 weeks
Method: In order to evaluate the feasibility of emulsification, ABCD was emulsified with yolk phospholipids by using a Manton-Gaulin homogenizer and the stability to heating at 100° C. for 30 minutes and storage at 4° C. and 25° C. for 2 weeks were examined.

[2] = Toxicity: weight gain of rats administered emulsion; type: in vivo; details: Wistar strain male rats, ABCD emulsion, 4 g/kg as ABCD
Method: (§1) ABCD was evaluated as candidate for an artificial blood substitute from the aspects of toxicity, feasibility of emulsification and excretion rate from the organs.

[3] = Retention in body organs with time (gas chromatography); type: in vivo, rats; details: rat, 0.32 mL/100 g, 0.32 ml. fluorocarbon per 100 gm body weight; for concentration at 120 h: 5 Days; for concentration at 168 h: 7 Days (Av. of 2); for concentration at 240 h: 10 Days; for concentration at 504 h: 21 Days
Method: 4. RETENTION OF PERFLUORO-1-AZABICYCLO(5,3,0)DECANE BODY ORGANS WITH TIME
Gas chromatography results--rats injected with emulsion of ABCD (0.32 ml. fluorocarbon per 100 gm body weight). The following residual fluorocarbon concentrations were observed. (In mg. fluorocarbon/gm tissue).

[4] = Solubilities at 25° C. of perfluoro-1-azabicyclo(5,3,0)decane in solvents; type: physicochemical
Excerpt: Solubility of perfluoro-1-
azabicyclo(5,3,0)decane in […]

[5] = Excretion rate from the organs; type: in vivo, rats
Method: as §1

[6] = Oxygen solubility in fluorocarbon; type: physicochemical; details: oxygen-saturated at 20° C.; corrected for vapour pressure of fluorocarbon
Method: A portion of 20 ml. of ABCD was degassed by boiling and cooled to 20° C. while being bubbled with oxygen gas. The oxygen-saturated liquid was then degassed under vacuum and the gas evolved was collected and its volume measured at a known temperature and pressure. After allowing for the vapour pressure of the fluorocarbon, the solubility of oxygen was calculated to be in the range 45±10 mls of O2 (at 760 mm Hg & 0° C.) per 100 ml. of fluorocarbon. The solubility of oxygen in ABCD is thus adequate to permit the use of this fluorocarbon as an oxygen carrier for medical use.

[7] = Emulsion forming capacity with Pluronic F68, standing overnight; type: physicochemical; details: for Emulsification time to form emulsion: Pluronic F68 in deionised water, high speed mixer; for Separation (creaming) of the emulsion: standing at room temperature overnight, Pluronic F68
Method: To 10 ml. of perfluoro-1-azabicyclo(5,3,0)decane (ABCD) was added 10 ml. of solution made by dissolving 8.0 g of a non-ionic, polyoxyethylene-polyoxypropylene surfactant ('Pluronic F68', RTM) in 220 ml. of deionised water. The mixture was emulsified for a few minutes using a high speed mixer to form an emulsion having the appearance of diluted milk.
In a comparison test, an emulsion was formed using perfluorodecalin. An emulsion of similar appearance to that formed with ABCD required about 10 minutes emulsification.

[8] = Base stability of fluorination product; type: physicochemical
[9] = aqueous media; cited from earlier work
[10] = in vivo; cited from earlier work
[11] = heart, read-out: Residual fluorocarbon concentration, heart
[12] = kidney, read-out: Residual fluorocarbon concentration, kidney
[13] = liver, read-out: Residual fluorocarbon concentration, liver
[14] = lung, read-out: Residual fluorocarbon concentration, lung
[15] = spleen, read-out: Residual fluorocarbon concentration, spleen

Question: With `FC1(F)N2C(F)(F)C(F)(F)C(F)(F)C2(F)C(F)(F)C(F)(F)C(F)(F)C1(F)F` (stereo not shown) [ABCD, perfluoro-1-azabicyclo(5,3,0)decane] as the compound, how does the Stability of emulsion [1] read?
Answer: acceptably stable

Question: What about the Weight gain [2] of the same compound?
Answer: gained weight favourably

Question: And the concentration at 120 h [3, 11]?
Answer: 130000 ng/g

Question: What about the concentration at 120 h [3, 12] of the same compound?
Answer: 170000 ng/g

Question: What about the concentration at 120 h [3, 13] of the same compound?
Answer: 1.18e+07 ng/g

Question: What about the concentration at 120 h [3, 14] of the same compound?
Answer: 560000 ng/g

Question: What about the concentration at 120 h [3, 15] of the same compound?
Answer: 4.35e+07 ng/g

Question: What about the concentration at 168 h [3, 11] of the same compound?
Answer: 450000 ng/g

Question: And the concentration at 168 h [3, 12]?
Answer: 100000 ng/g

Question: And the concentration at 168 h [3, 13]?
Answer: 6.73e+06 ng/g

Question: What about the concentration at 168 h [3, 14] of the same compound?
Answer: 100000 ng/g

Question: And the concentration at 168 h [3, 15]?
Answer: 2.23e+07 ng/g

Question: What about the concentration at 240 h [3, 11] of the same compound?
Answer: 260000 ng/g

Question: What about the concentration at 240 h [3, 12] of the same compound?
Answer: 190000 ng/g

Question: And the concentration at 240 h [3, 13]?
Answer: 2.51e+06 ng/g

Question: And the concentration at 240 h [3, 14]?
Answer: 160000 ng/g

Question: And the concentration at 240 h [3, 15]?
Answer: 1.2e+08 ng/g

Question: And the concentration at 336 h ([3]; 14 Days (* not Av. of 2), spleen, read-out: Residual fluorocarbon concentration, spleen)?
Answer: 3.69e+06 ng/g

Question: What about the concentration at 336 h ([3]; 14 Days (Av. of 2), heart, read-out: Residual fluorocarbon concentration, heart) of the same compound?
Answer: 180000 ng/g

Question: What about the concentration at 336 h ([3]; 14 Days (Av. of 2), kidney, read-out: Residual fluorocarbon concentration, kidney) of the same compound?
Answer: 150000 ng/g

Question: And the concentration at 336 h ([3]; 14 Days (Av. of 2), liver, read-out: Residual fluorocarbon concentration, liver)?
Answer: 380000 ng/g

Question: What about the concentration at 336 h ([3]; 14 Days (Av. of 2), lung, read-out: Residual fluorocarbon concentration, lung) of the same compound?
Answer: 150000 ng/g

Question: What about the concentration at 504 h [3, 11] of the same compound?
Answer: 160000 ng/g

Question: And the concentration at 504 h [3, 12]?
Answer: 160000 ng/g

Question: What about the concentration at 504 h [3, 13] of the same compound?
Answer: 40000 ng/g

Question: What about the concentration at 504 h [3, 14] of the same compound?
Answer: 150000 ng/g

Question: And the concentration at 504 h [3, 15]?
Answer: 1.12e+06 ng/g

Question: What about the Solubility in acetone ([4]; acetone) of the same compound?
Answer: 6.84 g in 100 g solvent

Question: What about the Solubility in hexane ([4]; hexane) of the same compound?
Answer: miscible

Question: What about the Solubility in methanol ([4]; methanol) of the same compound?
Answer: 1.36 g in 100 g solvent

Question: And the Solubility in trichloro-trifluoroethane ([4]; trichloro-trifluoroethane)?
Answer: miscible

Question: And the Solubility in water ([4]; water)?
Answer: hardly soluble

Question: What about the “Amount detected in all organs” value ([5]; 2 weeks after injection) of the same compound?
Answer: only trace amounts

Question: What about the “Elimination from the organs” value ([5]; after injection) of the same compound?
Answer: very rapidly eliminated from the organs

Question: And the Solubility of oxygen [6]?
Answer: 45±10 mls of O2 (at 760 mm Hg & 0° C.) per 100 ml. of fluorocarbon

Question: What about the “Emulsification time to form emulsion” value [7] of the same compound?
Answer: a few minutes

Question: What about the “Separation (creaming) of the emulsion” value [7] of the same compound?
Answer: minor amount of separation ('creaming')

Question: With `FC(F)(F)C1(F)N2C(F)(F)C(F)(F)C(F)(F)C2(F)C(F)(F)C(F)(F)C(F)(F)C1(F)F` (stereo not shown) [perfluoro-1-aza-2-methyl(5,3,0)decane] as the compound, how does the Stability to base [8] read?
Answer: base-stable

Question: With `FC1(F)C(F)(F)C(F)(F)C2(F)C(F)(F)C(F)(F)C(F)(F)C(F)(F)C2(F)C1(F)F` (stereo not shown) [perfluorodecalin, reference compound] as the compound, how does the Emulsion stability [9] read?
Answer: does not easily give a stable emulsion in aqueous media

Question: What about the “Emulsification time to form emulsion” value [7] of the same compound?
Answer: about 10 minutes

Question: What about the “Separation (creaming) of the emulsion” value [7] of the same compound?
Answer: pronounced creaming

Question: Which Emulsion stability [9] does the source give for `FC(F)(F)C(F)(F)C(F)(F)N(C(F)(F)C(F)(F)C(F)(F)F)C(F)(F)C(F)(F)C(F)(F)F` [perfluorotripropylamine] here?
Answer: gives a more stable emulsion than perfluorodecalin

Question: What about the “Retention time in the body” value [10] of the same compound?
Answer: longer retention time in the body
